Measured values: patent US9315489B2, “Compounds and compositions for inhibiting the activity of ABL1, ABL2 and BCR-ABL1” (Novartis AG, priority 2012, dated 2016)

How the values were obtained:
ABL1 (64-515) [1] = target: T1, ABL1 (64-515) (Homo sapiens (Human), UniProt P00519); experiment: Radio ABL1 (64-515) assay (radiometric filter-binding); format: biochemical
Procedure: For determination of ABL kinase activity, the radiometric filter-binding assay was used. […] Pre-incubation of enzyme with compounds (when stated) was performed by exposing the enzyme to compounds prior to addition of the substrate mixture (ATP and/or peptide substrate). […] Millipore, Volketswil, Switzerland) prepared according to the manufacturer's instructions. Filter-plates were washed 3× with 0.5% H3PO4, followed by addition of 30 μL scintillation cocktail (Microscint, Perkin Elmer) per well and then analysed in a TopCount NXT scintillation counter (Perkin Elmer). Results were expressed as IC50 values.

ABL1 (64-515) [2] = target: T1, ABL1 (64-515); experiment: Caliper ABL1 (64-515) assay (microfluidic mobility shift); format: biochemical
Procedure: All assays were performed in 384-well microtiter plates. Each assay plate contained 8-point serial dilutions for 40 test compounds, as well as four 8-point serial dilutions of staurosporine as a reference compound, plus 16 high and 16 low controls. Liquid handling and incubation steps were done on a Thermo CatX workstation equipped with Innovadyne Nanodrop Express. Between pipetting steps, tips were cleaned in wash cycles using wash buffer.
The assay plates were prepared by addition of 50 nL per well of compound solution in 90% DMSO. […] Plates with terminated kinase reactions were transferred to the Caliper LC3000 workstations for reading. Phosphorylated and unphosphorylated peptides were separated using the Caliper microfluidic mobility shift technology. Briefly, samples from terminated kinase reactions were applied to the chip. Analytes are transported through the chip by constant buffer flow and the migration of the substrate peptide is monitored by the fluorescence signal of its label. Phosphorylated peptide (product) and unphosphorylated peptide (substrate) are separated in an electric field by their charge/mass ratio. Kinase activities were calculated from the amounts of formed phospho-peptide. IC50 values were determined from percent inhibition values at different compound concentrations by non-linear regression analysis.
Test compounds were dissolved in DMSO (10 mM) and transferred into 1.4 mL flat bottom or V-shaped Matrix tubes carrying a unique 2D matrix. The stock solutions were stored at +2° C. if not used immediately. For the test procedure the vials were defrosted and identified by a scanner whereby a working sheet was generated that guided the subsequent working steps.
Compound dilutions were made in 96-well plates. This format enabled the assay of maximally 40 individual test compounds at 8 concentrations (single points) including 4 reference compounds. The dilution protocol included the production of “pre-dilution plates”, “master plates” and “assay plates”.
Polypropylene 96-well plates were used as pre-dilution plates. […] All dilution steps were done on a HamiltonSTAR robot.
These plates were used directly for the assay which was performed in a total volume of 9.05 μL.

Ba/F3-BCR-ABL1-WT cells = experiment: Ba/F3-BCR-ABL1-WT cellular proliferation assay; format: cell-based, murine; settings: Mus musculus; 48 hours; read-out: Ba/F3-BCR-ABL1-WT IC50
Procedure: To generate Ba/F3 cells that depend on BCR-ABL1 expression for growth and survival, Ba/F3 cells were engineered to express BCR-ABL1 using retroviral transduction with a MSCV based retroviral vector containing a p210 BCR-ABL1expression cassette. […] These cells are referred to as Ba/F3-BCR-ABL1-WT.
Cells were incubated at 37° C. in a humidified environment with 5% carbon dioxide for 48 hours. Britelite plus solution (Perkin Elmer) was prepared according to the manufacturer's instructions and 25 μL added to each well of the assay plate. […] The degree of luminescence correlates with the number of cells in each well. The effect of each inhibitor concentration can therefore be calculated and IC50 values generated.

[3] = tested on: Ba/F3-BCR-ABL1-T315I cells; experiment: Ba/F3-BCR-ABL1-T315I cellular proliferation assay; format: cell-based, murine; settings: Mus musculus; 48 hours; read-out: Ba/F3-BCR-ABL1-T315I IC50
Source text: The murine bone marrow-derived cell line Ba/F3 was used to generate the appropriate cell line models. Ba/F3 cells were obtained from the German Collection of Microorganisms and Cell Cultures (DSMZ, Braunschweig and DSMZ No. ACC 300). […] These cells are referred to as Ba/F3-WT.
To generate Ba/F3 cells that depend on BCR-ABL1 expression for growth and survival, Ba/F3 cells were engineered to express BCR-ABL1 using retroviral transduction with a MSCV based retroviral vector containing a p210 BCR-ABL1expression cassette. When grown in the absence of IL-3, the proliferation of the cells is dependent on the expression of BCR-ABL1. (Daley, G. Q. and Baltimore, D. Transformation of an interleukin 3-dependent hematopoietic cell line by the chronic myeloid leukemia-specific p210 BCR-ABL1 protein. PNAS 1988; 85:9312-9316). These cells are referred to as Ba/F3-BCR-ABL1-WT. A similar approach was used to generate Ba/F3 cells that depend on a BCR-ABL1 variant in which threonine 315 is replaced with isoleucine. These cells are referred to as Ba/F3-BCR-ABL1-T3151.
Ba/F3-WT cells were maintained in RPMI1640 media with L-glutamine, HEPES (Lonza), 10% FBS (Gibco) and 5 ng/ml IL-3 (Calbiochem). Ba/F3-BCR-ABL1-WT cells and Ba/F3-BCR-ABL1-T3151 cells were maintained in RPMI1640 media with L-glutamine, HEPES (Lonza) and 10% FBS (Gibco).
For each cell line, the cell density was adjusted to 50 000 cells/mL and 50 μL (2500 cells) added per well of a 384-well assay plate.
Test compounds were resuspended in DMSO at a concentration of 10 mM. A serial three-fold dilution of each compound with DMSO was performed in 384-well plates using the Janus Liquid Dispenser (PerkinElmer). Compound was delivered to the assay plates containing 2500 cells in a 50 μL volume via Acoustic delivery from an ATS-100 (EDC). For Ba/F3-BCR-ABL1-WT cell assays, […] of each compound dilution was transferred to the assay plate for final assay concentrations of 0.4 μM, 0.13 μM, 0.044 μM, 0.015 μM, 0.005 μM, 0.001 μM, 0.00033 μM, 0.00011 μM, 0.000037 μM, 0.000012 μM. For Ba/F3-WT and Ba/F3-BCR-ABL1-T315I cell assays, […] of each compound dilution was transferred to the assay plate for final assay concentrations of 10 μM, 3.33 μM, 1.11 μM, 0.37 μM, 0.12 μM, 0.041 μM, 0.014 μM, 0.0046 μM, 0.0015 μM, 0.00051 μM.
Cells were incubated at 37° C. in a humidified environment with 5% carbon dioxide for 48 hours. Britelite plus solution (Perkin Elmer) was prepared according to the manufacturer's instructions and 25 μL added to each well of the assay plate. Plates were incubated for 3-5 minutes and the luminescence detected on an EnVision Multimode plate reader (Perkin Elmer). The degree of luminescence correlates with the number of cells in each well. The effect of each inhibitor concentration can therefore be calculated and IC50 values generated.

T1 sequence (P00519 64-515): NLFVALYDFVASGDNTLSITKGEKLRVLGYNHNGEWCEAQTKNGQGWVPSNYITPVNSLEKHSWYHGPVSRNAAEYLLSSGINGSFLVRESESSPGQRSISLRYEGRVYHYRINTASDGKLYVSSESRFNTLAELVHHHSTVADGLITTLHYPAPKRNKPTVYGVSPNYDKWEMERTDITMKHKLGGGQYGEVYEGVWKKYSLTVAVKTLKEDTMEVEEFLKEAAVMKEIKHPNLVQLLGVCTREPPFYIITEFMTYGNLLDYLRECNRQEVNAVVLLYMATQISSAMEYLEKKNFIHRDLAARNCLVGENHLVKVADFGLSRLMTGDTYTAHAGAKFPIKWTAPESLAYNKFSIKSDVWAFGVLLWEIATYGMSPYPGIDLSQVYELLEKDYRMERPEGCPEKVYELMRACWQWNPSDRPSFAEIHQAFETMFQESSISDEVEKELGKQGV

Row | SMILES | IC50 (ABL1 (64-515) [1]) [nM] | IC50 (ABL1 (64-515) [2]) [nM] | IC50 (Ba/F3-BCR-ABL1-WT cells) [nM] | IC50 [3] [nM]
1 | N#CC1(c2ncc(C(=O)Nc3ccc(OC(F)(F)F)cc3)cc2-c2cncnc2)CCC1 [Example 48, 6-(1-Cyanocyclobutyl)-5-(pyrimidin-5-yl)-N-(4-(trifluoromethoxy)phenyl)nicotinamide] | 9 | 6.2 | 18 | 363
2 | Cc1ccc(C(=O)Nc2ccc(OC(F)(F)F)cc2)cc1-c1cncnc1 [Example 14, 4-Methyl-3-(pyrimidin-5-yl)-N-(4-(trifluoromethoxy)phenyl)benzamide] | 8.5 | 3.5 | 2.1 | 306
